How the values were obtained:
Cytotoxicity (MTT assay) = format: cell-based; settings: rhesus monkey; LLCMK2 cells, 72 h, MTT assay
Experimental: (§1) The cytotoxic effects of the phenothiazinium dyes in LLCMK2 cells was measured by Thiazolyl Blue Tetrazolium Bromide (MTT) assay, as described in [12]. A suspension of LLCMK2 cells (5 × 10^4/ml) in RPMI supplemented with 10% FBS was distributed in 96-well plates and cultivated (37°C, 5% CO2) to the confluence. […] The cultures were incubated for 72 h, 37°C, and 5% CO2. For the measurement of the […], the media were carefully removed and an MTT solution (500 μg/ml MTT in PBS) was added. The reaction was performed for 4 h at 37°C, 5% CO2. After the reaction, the MTT solution was discarded and the formazan crystals solubilized with DMSO. The absorbance was measured in an ELISA reader (Synergy™ H1, Biotek) at 570 nm. The percentages of proliferation and cytotoxicity were calculated using the mean absorbance of the compound-free control and the absorbance of each treatment. The IC50 and the combination index (CI) were achieved using Compusyn software (http://www.combosyn.com/) and the selective index (CC50/IC50) was also determined. […] For oxidative stress and mitochondrial activity, data were analyzed by one-way ANOVA followed by a Dunnett's post hoc test (compared to nontreated groups) on GraphPad 5.0 software.

LLCMK2 cells = assay: Cytotoxicity (MTT assay); format: cell-based; settings: CC50 LLCMK2 / IC50 amastigotes
Experimental: as §1

T. cruzi amastigotes [1] = assay: Drug combination assay against amastigotes (CPRG, Compusyn); format: cell-based; settings: Trypanosoma cruzi
Experimental: (§2) LLCMK2 cells were distributed in 96-well plates (5×10^4 cells/ml) and infected with T. cruzi-LacZ at a multiplicity of infection (MOI) of 10:1 (5×10^5 cells/ml). The cultures were incubated for 48 h, 37°C, and 5% CO2 and washed with phosphate buffered saline (PBS). Serial dilutions of compounds (starting from 10 μM) in RPMI were added to the cultures in duplicate and incubated for 72 h, 37°C,and 5% CO2. […] After incubation, the media were removed and followed by the reaction with chlorophenol red-β-D-galactopyranoside (CPRG) buffer (200 μM CPRG, 2% Trion X-100, and 50 mM MgCl2 in PBS) for 4 h, 37°C. The plates were read at 570 nm in ELISA reader (Synergy™ H1, Biotek). Three independent assays were performed.
(§3) The percentages of proliferation and cytotoxicity were calculated using the mean absorbance of the compound-free control and the absorbance of each treatment. The IC50 and the combination index (CI) were achieved using Compusyn software (http://www.combosyn.com/) and the selective index (CC50/IC50) was also determined. From CI values, synergistic (CI < 1), and antagonistic (CI > 1) interactions were identified. For oxidative stress and mitochondrial activity, data were analyzed by one-way ANOVA followed by a Dunnett's post hoc test (compared to nontreated groups) on GraphPad 5.0 software.
As references, isolated compounds of each combination were evaluated concomitantly in the same plate. The inhibition percentage was calculated in comparison to the nontreated group and the IC50 and CI values were achieved using Compusyn software.

T. cruzi trypomastigotes [2] = assay: Mitochondrial membrane potential (JC-1, flow cytometry) in trypomastigotes; format: cell-based, Trypanosoma cruzi; settings: 4 × IC50, 2 h
Experimental: (§4) LLCMK2 cells in 75 cm^2 flasks were cultivated to confluence and were infected with 1 × 10^7 T. cruzi trypomastigotes. […] The infected cells were centrifuged for 10 min, 3000 g, and washed with PBS and suspended in trypsin to separate cells and parasites. The cultures were distributed in 1.5 ml microtubes (~ 1 × 10^6 trypomastigotes/tube) and incubated with 4 × IC50 of compounds at 37°C, 5% CO2 for 2 h. Menadione (MN), a classic inducer of cellular oxidative stress, was used as the positive control of ROS production as previously described in [14]. After treatment, the cultures were centrifuged for 10 minutes, 3000 g, and washed with PBS and suspended in trypsin. […] Similarly, the mitochondrial membrane potential was determined after incubation with 5 μM JC-1 under the same conditions. […] In polarized mitochondria, the dye forms J-aggregates, emitting red fluorescence. The cultures were washed with PBS and analyzed in a BD FACS-Canto (BD Biosciences) flow cytometer with the FACSDiva (BD) 6.1.3 software. Due to the size, host cells (infected and noninfected) and trypomastigotes were separately analyzed by flow cytometry. The median of fluorescence of oxidized DCF and the populations with active mitochondria were measured with excitation/emission at 488 nm/529 nm and […]. […]

noninfected LLCMK2 cells = assay: ROS measurement (DCFDA, flow cytometry) in noninfected cells; format: cell-based; settings: 4 × IC50, 2 h
Experimental: as §4

T. cruzi trypomastigotes [3] = assay: ROS measurement (DCFDA, flow cytometry) in trypomastigotes; format: cell-based, Trypanosoma cruzi; settings: 4 × IC50, 2 h
Experimental: as §4

T. cruzi amastigotes [4] = assay: Amastigote growth inhibition assay (T. cruzi-LacZ, CPRG readout); format: cell-based; settings: Trypanosoma cruzi, LLC-MK2, amastigotes in LLCMK2 cells, 72 h, 37°C, three independent assays
Experimental: T. cruzi (Tulahuen strain) was maintained in cultures of LLCMK2 cells and cultivated in RMPI supplemented with 10% fetal bovine serum (FBS) at 37°C, 5% CO2. The parasites used in proliferation and flow cytometry assays were genetically modified to express the enzyme β-galactosidase (T. cruzi-LacZ [9]). To illustrate the inhibition of parasite proliferation, a T. cruzi expressing GFP (G-GFP strain [10]) was used.
as §2, §3

[5] = 72 h, read-out: IC50 (compound 1), compound 1 alone, evaluated in the same plate as the combination
[6] = 72 h, compound 2 alone, evaluated in the same plate as the combination, read-out: IC50 (compound 2)

| Structure (SMILES) | CC50 at 72 h (Cytotoxicity (MTT assay)) | SI (selectivity index, CC50/IC50) (LLCMK2 cells) | IC50 (T. cruzi amastigotes [1]; [5]) | Mitochondrial membrane potential in trypomastigotes (T. cruzi trypomastigotes [2]) | ROS production in noninfected cells (noninfected LLCMK2 cells) | ROS production in trypomastigotes (T. cruzi trypomastigotes [3]) | IC50 (T. cruzi amastigotes [4]) | IC50 (T. cruzi amastigotes [1]; [6]) | IC50 (T. cruzi amastigotes [1]; 72 h, compound 1 alone, evaluated in the same plate as the combination, read-out: IC50 (compound 1)) | IC50 (T. cruzi amastigotes [1]; 72 h, read-out: IC50 (compound 2), compound 2 alone, evaluated in the same plate as the combination) | IC50 (T. cruzi amastigotes [1]; read-out: IC50 (compound 2), compound 2 alone, evaluated in the same plate as the combination) |
| --- | --- | --- | --- | --- | --- | --- | --- | --- | --- | --- | --- |
| O=C(Cn1ccnc1[N+](=O)[O-])NCc1ccccc1 [BZ, Benznidazole] | > 200000 nM | > 58.65 | 3320 nM | did not affect mitochondria | increased ROS production | no ROS production was detected | 3410 ± 380 nM |  |  |  |  |
| Cc1cc(N(C)C)cc2[s+]c3cc(N(C)C)cc(C)c3nc12 [DMMB, 1,9–Dimethyl Methylene Blue] | 4460 ± 230 nM | 51.26 |  |  |  |  | 80 ± 20 nM | 71 nM |  |  |  |
| CN(C)c1ccc2nc3ccc(=[N+](C)C)cc-3sc2c1 [MB, Methylene Blue] | 16800 ± 1180 nM | 37.40 |  |  |  |  | 440 ± 150 nM | 477 nM | 560 nM |  |  |
| CC1=CC(=O)c2ccccc2C1=O [MN, Menadione] |  |  |  | reduced the membrane potential | increased ROS production | increased ROS production |  |  |  |  |  |
| CCNc1cc2[s+]c3cc(NCC)c(C)cc3nc2cc1C [NMB, New Methylene Blue] | 4190 ± 1300 nM | 44.71 | 122 nM |  |  |  | 90 ± 10 nM | 100 nM |  |  |  |
| Cc1cc2nc3ccc(N(C)C)cc3[s+]c2cc1N [TBO, Toluidine Blue O] | 7930 ± 5220 nM | 28.61 | 381 nM |  |  |  | 270 ± 110 nM |  |  | 322 nM | 322 nM |

From paper PMC6637691, “Phenothiazinium Dyes Are Active against Trypanosoma cruzi In Vitro” (BioMed Research International, 2019)
